This is an account of results in patent publication US20220031667A1, “THIAZOLIDINEDIONE ANALOGS FOR THE TREATMENT OF NAFLD AND METABOLIC DISEASES” (Cirius Therapeutics, Inc., priority 2019, published 2022).

“Also recorded” adds a separate entry of the source.

The subject of series [1] is subjects with biopsy proven NASH with fibrosis and no cirrhosis. Description: EMMINENCE Phase 2b clinical trial, interim analysis at six months. As to conditions: for peripheral edema present at 6 months: placebo 12.50%; for percentage of patients with high baseline ALT who returned to normal range: placebo 15%; for percentage of patients with high baseline AST who returned to normal range: placebo 20%. It is filed as in vivo, humans. From the text:
Detailed Description: This is a randomized, double-blinded study of three doses of MSDC-0602K or placebo given orally once daily to subjects with biopsy proven NASH with fibrosis and no cirrhosis. Visits to the clinic will be at baseline, 1, 2, 3, 6, 9, and 12 months, with one 2-week follow-up visit. Safety will be assessed by monitoring of vital signs, 12 lead electrocardiogram (ECG), physical examinations, safety labs, and adverse events (AEs).
An interim analysis of the EMMINENCE Phase 2b trial was conducted in the first 328 subjects who reached their six-month follow-up visit. […] In the two highest dose groups, at least 50% of patients with elevated baseline Alanine transaminase (ALT) or Aspartate Aminotransferase (AST) improved into the normal range at six months, as shown in Table 3.
The subjects included in this interim analysis had significant liver disease, as established by liver biopsy, with an average NAS at baseline of 5.3. […] Overall, baseline characteristics were well-balanced across treatment groups.

In series [2] the test system is stellate cells in 3-dimensional bioprinted human liver organoids. Description: 3-dimensional bioprinted human liver organoids in medium with high sugars and fatty acid, collagen staining. In kind it is cell-based. As to conditions: added to the tissue medium with high concentrations of sugars and fatty acid.
Series [3] concerns cell functions and key regulatory proteins. As to the kind of experiment: impact of MSDC-0602K vs overnutrition on cell functions and key regulatory proteins (Table 1).
Series [4] relates to mice on high fat, high cholesterol, high sugar diet. Description: preclinical NASH model: diet enriched in trans fat, cholesterol and fructose for 19 weeks. In kind it is in vivo. As to the method:
Mice were fed a diet enriched in trans fat, cholesterol and fructose for 19 weeks to induce hepatic damage, which was assessed by histological changes in the NAS and fibrosis, measured by trichrome staining for collagen. MSDC-0602K (30 mg/kg) was given at either four weeks into the treatment or 16 weeks into the treatment as compared to the vehicle treated mice who were also on the modified diet. The results of mice who were kept on the normal diet are included for comparison. […] The signals for activation of the stellate cells and fibrosis are attenuated by treatment of the mice or isolated hepatocytes with MSDC-0602K.

Series [5] has as its system diet-induced obese WT (fl/fl) and LS-MPC2−/− mice. As to the kind of experiment: single dose in diet-induced obese (60% HF diet) WT and LS-MPC2−/− mice: GTT, plasma insulin, plasma ALT, liver qPCR. As to conditions: for glucose tolerance (GTT): vs vehicle. In kind it is in vivo. The protocol: 8 week old WT and LS-MPC2−/− mice were fed a diet of 60% fat (Research Diets D12492) for 20 weeks to induce obesity and insulin resistance. Intraperitoneal glucose tolerance tests (GTT) were performed after a 4 h fast by injection of 1 g/kg D-glucose in saline i.p. to assess glucose tolerance. 3 days after the initial GTT, mice were randomized to receive a single gavage of either vehicle (1% CMC, 0.01% Tween-80) or 30 mg/kg MSDC-0602K. Plasma insulin was measured by Singulex assay and plasma ALT levels were measured by commercially-available kits (Teco Diagnostics). qPCR was performed by isolation of total RNA with RNA-Bee and reverse transcription with a high-capacity cDNA synthesis kit (Invitrogen). qPCR was performed on an Applied Biosystems real-time thermocycler.
(Quantitative PCR measures a nucleic acid by following its amplification.)

Series [6] is described as follows: preclinical toxicology, six- and twelve-month animal studies. It is filed as in vivo.
Another series has as its system healthy volunteers. Description: three Phase 1 clinical trials in 126 healthy volunteers, safety. It is filed as in vivo, humans. Conditions: Phase 1, healthy volunteers.
The nature of series [7]: clinical pharmacokinetics (Phase 1 cross-over trials, Phase 2a trial). As to conditions: human, in vivo; humans, oral.
Series [8] relates to WT mice on HTF-C diet (mouse model of NASH). Description: NASH (HTF-C) diet plasma RNA experiments: serum miRNA sequencing. It is filed as in vivo. Conditions: HTF-C diet 4 or 16 weeks, then HTF-C diet containing 331 ppm. The protocol: To begin evaluating the exosome cargo of MSDC-0602K-treated mice, WT mice were fed with either a low fat (LF) control diet (Research Diets D09100304) or high trans-fat, fructose, cholesterol (HTF-C) diet composed of 40% trans-fat, 20% fructose, 2% cholesterol (Research Diets D09100301).
Total RNA was isolated from 400 μL of serum and small RNA sequencing was performed by adapter ligation, cDNA synthesis and size selection of 145-160 base pairs. Sequencing was then performed on an Illumina HiSeq3000.

For series [9], the target named is T1, MPC (mitochondrial pyruvate carrier) (Homo sapiens, UniProt O95563+Q9Y5U8).
T1 sequence (Q9Y5U8 1-109): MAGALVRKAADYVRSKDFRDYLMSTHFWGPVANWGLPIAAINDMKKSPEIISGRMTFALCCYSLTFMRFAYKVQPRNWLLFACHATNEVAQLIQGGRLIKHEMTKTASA
T1 sequence (O95563 1-127): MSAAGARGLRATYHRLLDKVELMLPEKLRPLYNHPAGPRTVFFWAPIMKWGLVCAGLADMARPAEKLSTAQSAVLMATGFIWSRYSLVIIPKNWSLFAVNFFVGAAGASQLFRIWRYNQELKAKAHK
As to the kind of experiment: relative binding affinities with the MPC. As to conditions: FIG. 16 as printed (legend: FIG. 8); relative to rosiglitazone and pioglitazone.

Series [10] is described as follows: exposure and bioavailability of MSDC-0602, its metabolite and the potassium salt. As to conditions: parent plus metabolite exposure. It is filed as in vivo.
The target of another series is T2, PPARγ (Homo sapiens, UniProt P37231).
T2 sequence (P37231 1-505): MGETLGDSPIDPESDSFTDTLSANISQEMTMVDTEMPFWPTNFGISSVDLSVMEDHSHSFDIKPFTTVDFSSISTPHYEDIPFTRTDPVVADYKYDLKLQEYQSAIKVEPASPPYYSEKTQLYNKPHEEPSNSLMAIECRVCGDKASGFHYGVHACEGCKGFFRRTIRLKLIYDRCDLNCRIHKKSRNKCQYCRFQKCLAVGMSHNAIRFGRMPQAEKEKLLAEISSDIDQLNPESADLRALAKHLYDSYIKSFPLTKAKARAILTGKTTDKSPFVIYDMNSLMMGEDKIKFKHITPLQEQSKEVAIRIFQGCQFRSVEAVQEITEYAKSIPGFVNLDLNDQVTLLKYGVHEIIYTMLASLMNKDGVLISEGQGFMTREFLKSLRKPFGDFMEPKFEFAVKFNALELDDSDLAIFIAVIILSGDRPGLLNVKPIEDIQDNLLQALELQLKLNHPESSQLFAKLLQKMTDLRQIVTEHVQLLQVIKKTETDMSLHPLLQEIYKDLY
As to the kind of experiment: relative binding affinities with PPARγ. Conditions: FIG. 15 as printed (legend: FIG. 7).

For `COc1cccc(C(=O)COc2ccc(CC3SC(=O)NC3=O)cc2)c1` (centres unmarked) [MSDC-0602K], the “peripheral edema present at 6 months” value in series [1] (62.5 mg (n = 81), baseline 13.60%) is reported as 7.80%. In series [1] (62.5 mg, six months), the “percentage of patients with high baseline ALT who returned to normal range” value was 29% and the “percentage of patients with high baseline AST who returned to normal range” value worked out at 36%. Also, the “peripheral edema present at 6 months” value in series [1] (125 mg (n = 84), baseline 13.10%) was 13.50%. In addition, the “placebo-corrected reduction in ALT at six months” value in series [1] (125 mg once daily, p<0.001) is reported as 14.3 U/L. Besides, the “placebo-corrected reduction in AST at six months” value in [1] (125 mg once daily, p=0.012) turned out to be 7.9 U/L. In series [1] (125 mg, six months), the “percentage of patients with high baseline ALT who returned to normal range” value turned out to be 60% and the “percentage of patients with high baseline AST who returned to normal range” value turned out to be 50%. Further, the “peripheral edema present at 6 months” value in [1] (250 mg (n = 85), baseline 9.40%) was 11.10%. The “placebo-corrected reduction in AST at six months” value in series [1] (250 mg once daily, not significant) came out at 4.0 U/L. Moreover, in [1] (250 mg once daily, p=0.004), the “placebo-corrected reduction in ALT at six months” value is 10.6 U/L. Also, in series [1] (250 mg, six months), the “percentage of patients with high baseline ALT who returned to normal range” value came to 56% and the “percentage of patients with high baseline AST who returned to normal range” value is recorded as 52%. In addition, the HbA1c result in series [1] (Type II diabetes subjects, all doses) is on record as “statistically significant improvement”. Besides, the “HOMA-IR and HbA1c” value in series [1] (all MSDC-0602K dose cohorts, six months) is reported as “Statistically significant reductions”. The “fasting glucose, HbA1c, insulin levels, and HOMA-IR” value in [1] (all subjects, six months, 125 mg and 250 mg doses) was “statistically significant improvements”. In addition, the Adiponectin entry in series [1] (all treatment cohorts, dose dependent) is “increased significantly”. Moreover, in series [1] (first 328 subjects), the “liver enzymes, including ALT and AST, at six months compared to baseline” value is reported as “statistically significant reductions”. For the same compound, in [1] (overall), the lipids entry is recorded as “neutral effect”. Moreover, the “treatment emergent serious adverse events” value in series [1] (reported in fourteen subjects, blinded across cohorts) was “none of which were determined by the investigator to be drug-related”. Further, in series [1] (six months), the “additional biomarkers of fibrosis such as hematocrit” value was “trends for improvement”; the “bilirubin, alkaline phosphatase, and gamma GT liver enzymes” value is “Improvements”. In series [1] (two highest dose groups (125 mg, 250 mg)), the “patients with elevated baseline ALT or AST improved into the normal range at six months” value is given as “at least 50%”. The “C-Reactive Protein levels” value in series [1] (two lowest doses) is on record as “decrease”. Further, the “nutrient-induced stellate cell activation and fibrosis (staining for collagen)” value in series [2] is “both prevented and reversed the effects of the nutrients”. Also, in series [3], the “Fatty acid oxidation (burning fat)” value is reported as “Increased”, the “HIF1α (transcription factor responding to oxygen)” value is reported as “Decreased”, the “Inflammation (ballooning due to injury)” value is listed as “Decreased” and the “Insulin sensitivity (cellular response to insulin)” value is listed as “Increased”. For the same compound, in [3], the “PPARγ, PPARα (transcription factors regulating fat metabolism and inflammation)” value is reported as “Increased”; the “SREBP (transcription factor regulating fat synthesis)” value is reported as “Decreased”; the “de novo lipid synthesis (making new fat)” value is “Decreased”; the “mTORC1 (important nutrient sensor)” value is “Decreased”. Also, the “signals for activation of the stellate cells and fibrosis” value in series [4] (30 mg/kg from week 4 or week 16 of a 19 week diet, mice or isolated hepatocytes) was “attenuated”. Also, the “glucose tolerance (GTT)” value in series [5] (obese WT mice, GTT 20 h after a single gavage of 30 mg/kg, 30 mg/kg) is reported as “improves glucose tolerance”. The “safety findings in toxicological profile” value in series [6] (doses up to seven-fold the currently used clinical dose equivalents) was “free acid, have been characterized and no significant safety findings”. Also, the safety and tolerability in series [6] (six- and twelve-month preclinical animal studies) was 0602K, MSDC-0602K was found to be safe and well-tolerated.

By half-life is commonly meant the time in which the quantity being followed falls by half. Take `COc1cccc(C(=O)COc2ccc(CC3SC(=O)NC3=O)cc2)c1` (centres unmarked) [MSDC-0602]: the “most commonly reported adverse events” value in the series on healthy volunteers is “commonly reported adverse events with MSDC-0602 were headache,; also recorded: emesis, diarrhea and abdominal bloating”. Also, in the series with healthy volunteers (MSDC-0602 or MSDC-0602K), the “deaths, serious adverse events, severe adverse events or discontinuations due to adverse events” value is “No deaths” and the “safety laboratory tests, vital signs, physical examination findings or electrocardiogram abnormalities considered clinically significant” value was “events were reported. Overall, it was determined that there were no”. Moreover, the half-life in series [7] is 11 to 17 h. The “serum miRNAs altered by HTF-C diet” value in series [8] is recorded as “largely corrected”. Moreover, the “binding to the MPC” value in series [9] was “maintain, and in some cases improve, binding to the MPC”. Besides, the “protection against the high fat, high cholesterol, high sugar diet representative of NASH disease” value in [4] (multiple animal models of NASH) was “has been shown to protect”. Moreover, the “plasma ALT and liver injury gene expression in LS-MPC2−/− mice” value in series [5] (LS-MPC2−/− mice, acute treatment) is listed as “refractory to the beneficial effects”. The “plasma ALT concentrations” value in series [5] (WT mice, single dose (FIG. 3A)) was “decreased plasma ALT concentrations”. Moreover, the “gene expression for hepatic stellate cell activation and fibrotic scar formation” value in [5] (WT mice, single dose (FIG. 3B)) is reported as “decreased gene expression”. Besides, the plasma insulin values result in series [5] (both WT and LS-MPC2−/− mice, single dose 30 mg/kg) is on record as “decreased”. Moreover, the “glucose tolerance (GTT)” value in [5] (obese LS-MPC2−/− mice, GTT 20 h after a single dose of 30 mg/kg) is “no improvement in glucose tolerance”. The “glucose tolerance (GTT)” value in series [5] (obese WT mice, GTT 20 h after a single gavage of 30 mg/kg) is recorded as “improved glucose tolerance”.

For `COc1cccc(C(O)COc2ccc(CC3SC(=O)NC3=O)cc2)c1` (centres unmarked) [primary metabolite of MSDC-0602], the “binding to the MPC” value in series [9] was “maintain, and in some cases improve, binding to the MPC”. Further, the “share of the combined exposure” value in series [10] is on record as “more than 90%”. The “reduction in binding affinity for PPARγ compared to pioglitazone” value at PPARγ was “more than fifty-fold reduction”.
